Results taken from patent US8846711B2, “Heterocyclic acrylamides and their use as pharmaceuticals” (Fab Pharma S.A.S., priority 2009, dated 2014).
In brackets after ≈: the same amount, converted by molar mass. Like-named read-outs stand apart in the source and are kept apart here.

Legend:
human albumin (HSA) = human albumin (HSA) (Homo sapiens (Human), UniProt P02768); experiment: HSA binding analysis using a chiral HSA column; assay type: in vitro ADME; details: for HSA Binding (%): AB%=[k′/(k′+1)]*100, pH 7.0; for HSA Binding (%) / Conclusion (HSA binding class): chiral HSA column; for k′: capacity factor, k′=(Tr−T0)/T0; for Tr: retention time on chiral HSA column, pH 7.0, 37° C.; for affinity in vitro to human albumin: text summary of Table 7
Excerpt: The test system used in this analysis was an HSA chiral column.
The relationship between the retention time (Tr) and percentage of albumin binding (AB %) depended on the dead time (TO) and the capacity factor (k′): AB%=[k′/(k′+1)]*100
HSA binding was classified as follows:
75%≦AB<90%: Moderate binding

E. coli (ATCC 25922) = experiment: MIC determination using susceptibility method (broth microdilution); assay type: cell-based; details: Escherichia coli
Experimental: (§1) Minimum inhibitory concentrations (MICs) were determined by broth microdilution according to CLSI guidelines (CLSI, M100-20^1, M7-A8^2, M27-A3^3). The compounds were tested in the range from […]. Colonies were taken directly from a second-pass culture plate and prepared to a suspension equivalent to the 0.5 McFarland standard using normal saline. […] The panels were incubated at 35° C. for 16 to 20 hours before reading the MIC endpoints. The compounds of Examples 12, 29, 59, 63 and 66-71 were dissolved in DMSO to make the initial solutions of 5120 μg/ml. These solutions were diluted 1:10 in sterile water to a stock solution of 512 μg/ml. The stock solutions were further diluted into the appropriate broth medium for the sequential dilutions used in the broth microdilution panels. S. pneumoniae was tested in Mueller Hinton (MH) broth with 3% lysed horse blood and C. albicans was tested in RPMI-1640 medium. All other organisms were tested in MH broth.

MSSA (IHMA #555189) = experiment: as above; assay type: cell-based; details: Staphylococcus aureus, read-out: MIC (μg/ml) MSSA (IHMA #555189)
Experimental: as §1

S. aureus ATCC 29213 = experiment: as above; assay type: cell-based; details: Staphylococcus aureus
Experimental: as §1

MRSA (IHMA #510059) = experiment: as above; assay type: cell-based; details: Staphylococcus aureus, read-out: MIC (μg/ml) MRSA (IHMA #510059)
Experimental: as §1

[1] = tested on: S. pneumoniae (ATCC 49619); experiment: as above; assay type: cell-based; details: Streptococcus pneumoniae
Experimental: as §1

E. faecalis (ATCC 29212) = experiment: as above; assay type: cell-based; details: Enterococcus faecalis
Experimental: as §1

C. albicans (ATCC 90028) = experiment: as above; assay type: cell-based; details: Candida albicans
Experimental: as §1

[2] = ATCC25922, read-out: MIC (μg/ml) E. coli (ATCC 25922)
[3] = ATCC29213, read-out: MIC (μg/ml) S. aureus ATCC 29213
[4] = ATCC49619, read-out: MIC (μg/ml) S. pneumoniae (ATCC 49619)
[5] = ATCC29212, read-out: MIC (μg/ml) E. faecalis (ATCC 29212)
[6] = ATCC90028, read-out: MIC (μg/ml) C. albicans (ATCC 90028)
[7] = ATCC25922, Broth microdilution, MH broth, read-out: MIC (μg/ml) E. coli (ATCC 25922)
[8] = ATCC29213, Broth microdilution, MH broth, read-out: MIC (μg/ml) S. aureus ATCC 29213
[9] = ATCC49619, Broth microdilution, MH broth with 3% lysed horse blood, read-out: MIC (μg/ml) S. pneumoniae (ATCC 49619)
[10] = ATCC29212, Broth microdilution, MH broth, read-out: MIC (μg/ml) E. faecalis (ATCC 29212)
[11] = ATCC90028, Broth microdilution, RPMI-1640 medium, read-out: MIC (μg/ml) C. albicans (ATCC 90028)

Chain of human albumin (HSA) (P02768 25-609): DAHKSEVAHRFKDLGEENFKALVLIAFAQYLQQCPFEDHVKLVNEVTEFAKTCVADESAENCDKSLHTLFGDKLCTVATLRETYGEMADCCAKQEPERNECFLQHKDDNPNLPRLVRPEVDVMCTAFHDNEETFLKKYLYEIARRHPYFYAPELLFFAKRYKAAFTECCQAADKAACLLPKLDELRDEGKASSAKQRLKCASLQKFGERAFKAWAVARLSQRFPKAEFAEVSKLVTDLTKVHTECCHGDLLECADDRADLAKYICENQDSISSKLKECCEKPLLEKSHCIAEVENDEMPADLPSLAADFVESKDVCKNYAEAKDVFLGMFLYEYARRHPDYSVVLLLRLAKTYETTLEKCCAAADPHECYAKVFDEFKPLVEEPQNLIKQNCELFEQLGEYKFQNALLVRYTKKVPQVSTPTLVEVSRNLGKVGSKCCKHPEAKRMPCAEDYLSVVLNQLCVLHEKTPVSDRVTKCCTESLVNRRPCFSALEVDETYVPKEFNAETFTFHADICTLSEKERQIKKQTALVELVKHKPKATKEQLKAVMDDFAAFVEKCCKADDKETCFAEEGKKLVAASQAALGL

Compound	HSA Binding (%) (human albumin (HSA))	k′ (human albumin (HSA))	Conclusion (HSA binding class) (human albumin (HSA))	Tr (human albumin (HSA))	affinity in vitro to human albumin (human albumin (HSA))	MIC (E. coli (ATCC 25922); [2])	MIC (MSSA (IHMA #555189))	MIC (S. aureus ATCC 29213; [3])	MIC (MRSA (IHMA #510059))	MIC [1, 4]	MIC (E. faecalis (ATCC 29212); [5])	MIC (C. albicans (ATCC 90028); [6])	MIC (E. coli (ATCC 25922); [7])	MIC (MSSA (IHMA #555189); Broth microdilution, MH broth)	MIC (S. aureus ATCC 29213; [8])	MIC (MRSA (IHMA #510059); Broth microdilution, MH broth)	MIC [1, 9]	MIC (E. faecalis (ATCC 29212); [10])	MIC (C. albicans (ATCC 90028); [11])
Cc1c(C2CN(C(=O)/C=C/c3cnc4c(c3)CC3(CCN(C)CC3)C(=O)N4)C2)oc2ccccc12 [Example 68, (E)-1′-Methyl-6-(3-(3-(3-methylbenzofuran-2-yl)azetidin-1-yl)-3-oxoprop-1-enyl)-1H-spiro[[1,8]naphthyridine-3,4′-piperidin]-2(4H)-one]	91.8%	11.216	High binding (AB≧90%: High binding)	9.414 min	high affinity	> 128 µg/mL	0.5 µg/mL (≈ 1.06 µM)	0.5 µg/mL (≈ 1.06 µM)	0.5 µg/mL (≈ 1.06 µM)	128 µg/mL (≈ 272 µM)	> 128 µg/mL	> 128 µg/mL	–	–	–	–	–	–	–
CCCO/N=C(\C)C1CN(C(=O)/C=C/c2cnc3c(c2)CCC(=O)N3)C1 [Example 70, 6-((E)-3-Oxo-3-(3-((E)-1-(propoxyimino)ethyl)azetidin-1-yl)prop-1-enyl)-3,4-dihydro-1,8-naphthyridin-2(1H)-one]	36.7%	0.580	Low binding (AB<75%: Low binding)	1.219 min	low affinity	–	–	–	–	–	–	–	> 128 µg/mL	0.5 µg/mL (≈ 1.4 µM)	0.5 µg/mL (≈ 1.4 µM)	0.5 µg/mL (≈ 1.4 µM)	> 128 µg/mL	> 128 µg/mL	> 128 µg/mL
CCCCOC1CN(C(=O)/C=C/c2cnc3c(c2)CC2(CCN(C)CC2)C(=O)N3)C1 [Example 63, (E)-6-(3-(3-Butoxyazetidin-1-yl)-3-oxoprop-1-enyl)-1′-methyl-1H-spiro[[1,8]naphthyridine-3,4′-piperidin]-2(4H)-one]	56.3%	1.288	Low binding (AB<75%: Low binding)	1.760 min	low affinity	64 µg/mL (≈ 155 µM)	1 µg/mL (≈ 2.42 µM)	1 µg/mL (≈ 2.42 µM)	1 µg/mL (≈ 2.42 µM)	64 µg/mL (≈ 155 µM)	64 µg/mL (≈ 155 µM)	128 µg/mL (≈ 310 µM)	–	–	–	–	–	–	–
O=C1CCc2cc(/C=C/C(=O)N3CC(OCCc4cccs4)C3)cnc2N1 [Example 29, (E)-6-(3-Oxo-3-(3-(2-(thiophen-2-yl)ethoxy)azetidin-1-yl)prop-1-enyl)-3,4-dihydro-1,8-naphthyridin-2(1H)-one]	55.7%	1.259	Low binding (AB<75%: Low binding)	1.743 min	low affinity	> 128 µg/mL	0.5 µg/mL (≈ 1.3 µM)	0.5 µg/mL (≈ 1.3 µM)	0.5 µg/mL (≈ 1.3 µM)	> 128 µg/mL	> 128 µg/mL	> 128 µg/mL	–	–	–	–	–	–	–
Cc1c(C2CN(C(=O)/C=C/c3cnc4c(c3)CCC(=O)N4)C2)oc2ccccc12 [Example 67, (E)-6-(3-(3-(3-Methylbenzofuran-2-yl)azetidin-1-yl)-3-oxoprop-1-enyl)-3,4-dihydro-1,8-naphthyridin-2(1H)-one]	89.3%	8.360	Moderate	7.229 min	moderate affinity	> 128 µg/mL	0.06 µg/mL (≈ 0.155 µM)	0.06 µg/mL (≈ 0.155 µM)	0.06 µg/mL (≈ 0.155 µM)	128 µg/mL (≈ 330 µM)	> 128 µg/mL	> 128 µg/mL	–	–	–	–	–	–	–
O=C1CCc2cc(/C=C/C(=O)N3CC(c4cc5ccccc5o4)C3)cnc2N1 [Example 59, (E)-6-(3-(3-(Benzofuran-2-yl)azetidin-1-yl)-3-oxoprop-1-enyl)-3,4-dihydro-1,8-naphthyridin-2(1H)-one]	82.4%	4.678	Moderate	4.378 min	moderate affinity	64 µg/mL (≈ 171 µM)	0.06 µg/mL (≈ 0.161 µM)	0.06 µg/mL (≈ 0.161 µM)	0.06 µg/mL (≈ 0.161 µM)	32 µg/mL (≈ 85.7 µM)	64 µg/mL (≈ 171 µM)	128 µg/mL (≈ 343 µM)	–	–	–	–	–	–	–
CCCO/N=C(/C)C1CN(C(=O)/C=C/c2cnc3c(c2)CCC(=O)N3)C1 [Example 71, 6-((E)-3-Oxo-3-(3-((Z)-1-(propoxyimino)ethyl)azetidin-1-yl)prop-1-enyl)-3,4-dihydro-1,8-naphthyridin-2(1H)-one]	28.8%	0.404	Low binding (AB<75%: Low binding)	1.084 min	low affinity	–	–	–	–	–	–	–	> 128 µg/mL	8 µg/mL (≈ 22.4 µM)	4 µg/mL (≈ 11.2 µM)	4 µg/mL (≈ 11.2 µM)	128 µg/mL (≈ 359 µM)	> 128 µg/mL	> 128 µg/mL
CN1CCC2(CC1)Cc1cc(/C=C/C(=O)N3CC(c4cc5ccccc5o4)C3)cnc1NC2=O [Example 69, (E)-6-(3-(3-(Benzofuran-2-yl)azetidin-1-yl)-3-oxoprop-1-en-1-yl)-1′-methyl-1H-spiro[[1,8]naphthyridine-3,4′-piperidin]-2(4H)-one]	88.5%	7.730	Moderate	6.734 min	moderate affinity	> 128 µg/mL	1 µg/mL (≈ 2.19 µM)	1 µg/mL (≈ 2.19 µM)	1 µg/mL (≈ 2.19 µM)	128 µg/mL (≈ 280 µM)	> 128 µg/mL	> 128 µg/mL	–	–	–	–	–	–	–
